According to patent publication US20220340983A1, “SYSTEMS AND ASSAYS FOR IDENTIFYING PU.1 INHIBITORS” (Massachustts Institute of Technology, priority 2019, published 2022):
One block for each molecule: values may come before it.

What was measured:
[1] = tested on: PU.1 dependent gene expression; test: RT-qPCR of mRNA levels in BV2 PU.1-Luciferase cells (validation round 3); format: cell-based, mouse; details: 2-day treatment
Procedure: The Asinex1 and ChemDiv6 libraries contain molecules with unknown biological properties, but with low toxicity, high stability, and a broad structural diversity used to generate structure-activity-relationships (SAR) of the PU.1 inhibitors. […] In order to obtain the SAR, three rounds of validation were performed. In round 1, false-positive, non-specific luciferase quencher molecules were excluded using the commercially available HEK293 CMV-Luciferase line that constitutively expresses luciferase under the CMV promoter. In round 2, weak (non-significant) hits were eliminated according to degree of PU.1 inhibition in the absence of cell death. In round 3, drugs were selected that reduce PU.1-dependent gene expression with RT-qPCR.

PU.1 = target: T1, PU.1 (Mus musculus, UniProt P17433); test: Luciferase assay (luminescence) in BV2 PU.1-Luciferase reporter cells; format: cell-based; details: luminescence reduction in BV2 PU.1-Luciferase cells, concentration-response, Hill's equation
T1 construct: endogenous in cells; host or cells: BV2 PU.1-Luciferase (mouse microglial BV2 with a 5xLBB-luciferase reporter integrated at ROSA26)
Description: PU.1 belongs to a group of transcription factors that all bind to the middle 5′-GGAA-3′ sequence. The flanking A/T rich sequence is crucial for conferring PU.1 selective binding. The flanking sequence requires unique structural properties of PU.1 and can therefore be targeted by drugs acting as allosteric inhibitors that prevent PU.1 from binding to the LBB. In order to achieve robust PU.1 binding, five tandem copies of the LBBs (5×LBB) were inserted into the luciferase promoter of the pGL4.23 plasmid. The region containing the five LBBs (5×LBB) was then subcloned into the pROSA26-1 plasmid (together with a PGKneo bpA plasmid for Neomycin/G418 resistance) that allows stable integration in chromosome 6 of the immortalized mouse microglial BV2 cell line (FIG. 2B). The stable cell line was created by selection with G418.
The BV2 PU.1-Luciferase cells (referred to as “cells” from here onward) were plated into a 384-well plate, using an automatic dispenser, 2000 cells per well in 30 μL of media composed of RPMI (Sigma-Aldrich), 10% FBS, 1% PenStrep (50 mg/mL) and 1% G418 (50 mg/mL) was plated. A robotic arm was used to transfer compounds in a 384-well format using a pin array into the plate containing the cells (here, 33 nL was transferred from a drug library containing 10 mM concentration of drugs for a final concentration of 10 μM per well). For reproducibility, each pin array with 384 compounds was added to 4 plates of cells. […] Subsequently, automatic of 30 μL of BrightGlo (Promega) was dispensed into 2 of the 4 plates, in order to lyse the cells and drive the luminescence reaction whereafter the luminescence intensity was measured by a plate reader (Perkin Elmer EnVision). The two other plates were fixed by automatically dispensing 30 μL of 10% formaldehyde with 2μL Hoechst per 1 mL formaldehyde which were left at room temperature for one hour, followed by plate reading (Acumen (TTPLabTech)). A compound transfer and treatment would be repeated if reproducibility between the luminescence plates and/or the fixed Hoechst plates was lacking. The drugs were selected and ranked according to the criteria described in FIG. 13. Luminescence values used were corrected for crosstalk. Hoechst values were total fluorescence area per well. Determination of a positive hit considered both the reduction of luminescence as well as a possible confounding reduction in cell viability. The formula used was y=(value−meanvalue)/stddev. […] Compounds were excluded if cell viability was reduced >2 standard deviations from the mean, using the same formula. The positive hits were then validated in multiple steps in order to identify true PU.1 inhibitors.
The degree of luminescence reduction of the hits was plotted with significant effective area under the curve in order to obtain an IC50.

Structure (SMILES): C[C@H]1C[C@H]2[C@@H]3CCC4=CC(=O)C=C[C@]4(C)[C@@]3(F)[C@@H](O)C[C@]2(C)[C@@]1(O)C(=O)CO [Betamethasone, reference compound]
- mRNA levels Apoe [1]: 1.615 multiples of 1×
- mRNA levels IL1β [1]: 0.379 multiples of 1×
- mRNA levels Spi1 [1]: 1.235 multiples of 1×
- mRNA levels Trem2 [1]: 1.137 multiples of 1×
- mRNA levels Tyrobp [1]: 1.079 multiples of 1×

Structure (SMILES): CC(=O)c1c(C)oc2ccc(N(C(=O)Oc3ccccc3)S(=O)(=O)c3ccc(C(C)(C)C)cc3)cc12 [Compound 1A2]
- mRNA levels Apoe [1]: 0.858 multiples of 1×
- mRNA levels IL1β [1]: 1.054 multiples of 1×
- mRNA levels Lucif. [1]: 0.324 multiples of 1×
- mRNA levels Spi1 [1]: 0.915 multiples of 1×
- mRNA levels Trem2 [1]: 1.073 multiples of 1×
- mRNA levels Tyrobp [1]: 1.093 multiples of 1×
- IC50 (PU.1): 2280 nM

Structure (SMILES): CCOc1ccc(S(=O)(=O)Nc2ccc3c(c2)c(C(C)=O)c(C)n3S(=O)(=O)c2ccc(OCC)cc2)cc1 [Compound 1A5]
- mRNA levels Apoe [1]: 1.200 multiples of 1×
- mRNA levels IL1β [1]: 0.707 multiples of 1×
- mRNA levels Lucif. [1]: 0.371 multiples of 1×
- mRNA levels Spi1 [1]: 0.982 multiples of 1×
- mRNA levels Trem2 [1]: 1.085 multiples of 1×
- mRNA levels Tyrobp [1]: 1.117 multiples of 1×
- IC50 (PU.1): 2930 nM

Structure (SMILES): CC(C)c1ccc(C2Sc3ccccc3NC3=C2C(=O)c2ccccc23)cc1 (centres unmarked) [Compound 1B5]
- mRNA levels Apoe [1]: 0.797 multiples of 1×
- mRNA levels IL1β [1]: 0.843 multiples of 1×
- mRNA levels Lucif. [1]: 0.491 multiples of 1×
- mRNA levels Spi1 [1]: 0.831 multiples of 1×
- mRNA levels Trem2 [1]: 0.775 multiples of 1×
- mRNA levels Tyrobp [1]: 0.697 multiples of 1×
- IC50 (PU.1): 2310 nM

Structure (SMILES): Cc1ccc(-c2nc3cc(C(C)C)ccc3o2)cc1NC(=O)c1cc([N+](=O)[O-])ccc1N1CCOCC1 [Compound 1C4]
- mRNA levels Apoe [1]: 0.883 multiples of 1×
- mRNA levels IL1β [1]: 0.813 multiples of 1×
- mRNA levels Lucif. [1]: 0.290 multiples of 1×
- mRNA levels Spi1 [1]: 1.142 multiples of 1×
- mRNA levels Trem2 [1]: 0.928 multiples of 1×
- mRNA levels Tyrobp [1]: 1.197 multiples of 1×
- IC50 (PU.1): 2430 nM

Structure (SMILES): CCOC(=O)c1ccc(NS(=O)(=O)c2cc(Br)cc3c2N(C(C)=O)C(C)C3)cc1 (centres unmarked) [Compound 1D3]
- mRNA levels Apoe [1]: 0.928 multiples of 1×
- mRNA levels IL1β [1]: 1.144 multiples of 1×
- mRNA levels Lucif. [1]: 0.347 multiples of 1×
- mRNA levels Spi1 [1]: 0.965 multiples of 1×
- mRNA levels Trem2 [1]: 1.031 multiples of 1×
- mRNA levels Tyrobp [1]: 1.102 multiples of 1×
- IC50 (PU.1): 1740 nM

Structure (SMILES): CCn1c(=O)c2cc(C(=O)Nc3cc(OC)c(OC)c(OC)c3)sc2c2ccccc21 [Compound 1G9]
- mRNA levels Apoe [1]: 1.217 multiples of 1×
- mRNA levels IL1β [1]: 0.582 multiples of 1×
- mRNA levels Lucif. [1]: 0.485 multiples of 1×
- mRNA levels Spi1 [1]: 0.989 multiples of 1×
- mRNA levels Trem2 [1]: 0.713 multiples of 1×
- mRNA levels Tyrobp [1]: 1.053 multiples of 1×
- IC50 (PU.1): 2290 nM

Structure (SMILES): CCOC(=O)c1oc2ccc(S(=O)(=O)n3nc(-c4ccccc4OC)cc3N)cc2c1C [Compound 1H7]
- mRNA levels Apoe [1]: 0.908 multiples of 1×
- mRNA levels IL1β [1]: 1.017 multiples of 1×
- mRNA levels Lucif. [1]: 0.524 multiples of 1×
- mRNA levels Spi1 [1]: 1.022 multiples of 1×
- mRNA levels Trem2 [1]: 1.100 multiples of 1×
- mRNA levels Tyrobp [1]: 1.011 multiples of 1×
- IC50 (PU.1): 2370 nM

Structure (SMILES): CCc1ccc(NC(=O)Cn2c(=O)oc3cc(S(=O)(=O)N4CCCCCC4)ccc32)cc1 [Compound 2A7]
- mRNA levels Apoe [1]: 0.886 multiples of 1×
- mRNA levels IL1β [1]: 0.435 multiples of 1×
- mRNA levels Lucif. [1]: 0.328 multiples of 1×
- mRNA levels Spi1 [1]: 0.739 multiples of 1×
- mRNA levels Trem2 [1]: 0.942 multiples of 1×
- mRNA levels Tyrobp [1]: 0.928 multiples of 1×
- IC50 (PU.1): 3620 nM

Structure (SMILES): CC(C)c1ccc(NC(=O)Cn2c(=O)oc3cc(S(=O)(=O)N4CCCC4)ccc32)cc1 [Compound 2A9]
- mRNA levels Apoe [1]: 0.988 multiples of 1×
- mRNA levels IL1β [1]: 1.048 multiples of 1×
- mRNA levels Lucif. [1]: 0.391 multiples of 1×
- mRNA levels Spi1 [1]: 1.073 multiples of 1×
- mRNA levels Trem2 [1]: 0.958 multiples of 1×
- mRNA levels Tyrobp [1]: 1.059 multiples of 1×
- IC50 (PU.1): 2570 nM

Structure (SMILES): C[C@@H]1C[C@H]2[C@@H]3CCC4=CC(=O)C=C[C@]4(C)[C@@]3(F)[C@@H](O)C[C@]2(C)[C@@]1(O)C(=O)CO [Dexamethasone, reference compound]
- mRNA levels Apoe [1]: 1.325 multiples of 1×
- mRNA levels IL1β [1]: 1.041 multiples of 1×
- mRNA levels Lucif. [1]: 0.373 multiples of 1×
- mRNA levels Spi1 [1]: 0.955 multiples of 1×
- mRNA levels Trem2 [1]: 0.751 multiples of 1×
- mRNA levels Tyrobp [1]: 1.010 multiples of 1×

Structure (SMILES): C[C@]12CCC(=O)C=C1CC[C@H]1[C@@H]3CC[C@](O)(C(=O)CO)[C@@]3(C)C[C@H](O)[C@@]12F [Fludrocortisone, reference compound]
- mRNA levels Apoe [1]: 1.493 multiples of 1×
- mRNA levels IL1β [1]: 1.764 multiples of 1×
- mRNA levels Lucif. [1]: 1.171 multiples of 1×
- mRNA levels Spi1 [1]: 0.900 multiples of 1×
- mRNA levels Trem2 [1]: 0.895 multiples of 1×
- mRNA levels Tyrobp [1]: 1.082 multiples of 1×

Now from value to molecule, other results behind:

- IC50 (PU.1): 876 nM
Structure (SMILES): CCc1ccc(CNC(=O)C2CCCN(c3nn4cc(-c5ccc(F)cc5)nc4s3)C2)cc1 (centres unmarked) [Compound 2C2]
- mRNA levels Apoe [1]: 1.035 multiples of 1×
- mRNA levels IL1β [1]: 0.954 multiples of 1×
- mRNA levels Lucif. [1]: 0.504 multiples of 1×
- mRNA levels Spi1 [1]: 1.034 multiples of 1×
- mRNA levels Trem2 [1]: 1.031 multiples of 1×
- mRNA levels Tyrobp [1]: 1.130 multiples of 1×

- IC50 (PU.1): 338 nM
Structure (SMILES): COc1cc(NS(=O)(=O)c2ccc3c(c2)CC(C)N3C(=O)C2CCC2)cc(OC)c1OC (centres unmarked) [Compound 2C3]
- mRNA levels Apoe [1]: 1.133 multiples of 1×
- mRNA levels IL1β [1]: 1.043 multiples of 1×
- mRNA levels Lucif. [1]: 0.430 multiples of 1×
- mRNA levels Spi1 [1]: 0.946 multiples of 1×
- mRNA levels Trem2 [1]: 1.179 multiples of 1×
- mRNA levels Tyrobp [1]: 1.127 multiples of 1×

- IC50 (PU.1): 2930 nM
Structure (SMILES): CC(C)(C)OC(=O)N1CCC(c2c(C(=O)Nc3ccc4c(c3)OCCO4)cnn2-c2ccccc2)CC1 [Compound 2C12]
- mRNA levels Apoe [1]: 0.731 multiples of 1×
- mRNA levels IL1β [1]: 0.486 multiples of 1×
- mRNA levels Lucif. [1]: 0.597 multiples of 1×
- mRNA levels Spi1 [1]: 0.736 multiples of 1×
- mRNA levels Trem2 [1]: 0.752 multiples of 1×
- mRNA levels Tyrobp [1]: 0.713 multiples of 1×

- IC50 (PU.1): 2650 nM
Structure (SMILES): Cc1c(Cl)cccc1-n1ncc(C(=O)Nc2ccc3c(c2)OCCO3)c1C1CCN(C(=O)OC(C)(C)C)CC1 [Compound 2D3]
- mRNA levels Apoe [1]: 0.980 multiples of 1×
- mRNA levels IL1β [1]: 0.960 multiples of 1×
- mRNA levels Lucif. [1]: 0.480 multiples of 1×
- mRNA levels Spi1 [1]: 0.922 multiples of 1×
- mRNA levels Trem2 [1]: 0.987 multiples of 1×
- mRNA levels Tyrobp [1]: 0.950 multiples of 1×

- IC50 (PU.1): 2620 nM
Structure (SMILES): CCCCN(C)C(=O)C1CCCN(c2ncnc3onc(C)c23)C1 (centres unmarked) [Compound 2D5]
- mRNA levels Apoe [1]: 1.400 multiples of 1×
- mRNA levels IL1β [1]: 0.287 multiples of 1×
- mRNA levels Lucif. [1]: 0.359 multiples of 1×
- mRNA levels Spi1 [1]: 1.015 multiples of 1×
- mRNA levels Trem2 [1]: 1.852 multiples of 1×
- mRNA levels Tyrobp [1]: 2.257 multiples of 1×

- IC50 (PU.1): 136 nM
Structure (SMILES): CCOC(=O)Cn1c(=O)n(C2CCCCC2)c2nc(-c3cccc(F)c3)nc(C(N)=O)c21 [Compound 2E4]
- mRNA levels Apoe [1]: 0.841 multiples of 1×
- mRNA levels IL1β [1]: 1.077 multiples of 1×
- mRNA levels Lucif. [1]: 0.404 multiples of 1×
- mRNA levels Spi1 [1]: 1.377 multiples of 1×
- mRNA levels Trem2 [1]: 0.806 multiples of 1×
- mRNA levels Tyrobp [1]: 1.141 multiples of 1×
